Source: patent US4948892A, “Sulfonamid compound useful for treating cardiovascular disorders” (Kowa Comp., Ltd., priority 1988, dated 1990)

System: ADP-induced platelet aggregation (rabbit PRP)
Assay: Inhibitory effect on ADP-induced platelet aggregation in PRP
Format: cell-based
Conditions: ADP (2 μM), preincubated 37° C. for 1 minute, inhibition rate (%) at this concentration in parentheses
Description: Rabbit PRP (250 μl) was preincubated with drug samples (10 μl of aqueous solution or 1 μl of DMSO solution) at 37° C. for 1 minute, and ADP (2 μM)-induced platelet aggregation was measured by aggregometer (NKK HEMA TRACERl Model PAT-4M). Inhibitory effects of the drugs were estimated from the standard curve of maximal aggregation.

O=S(=O)(NCCCN1CCN(C(c2ccccc2)c2ccccc2)CC1)c1ccc(Cl)cc1 [Example 9]
Platelet aggregation inhibitory concentration: 10^-4 mole/liter
